Assay results from ChEMBL document CHEMBL2016442, “Structure-activity studies of some berberine analogs as inhibitors of Toxoplasma gondii” (Bioorg Med Chem Lett, 2012).

How the values were obtained:
[1] = Therapeutic index, ratio of TD50 for human fibroblast cell to ID 50 for Toxoplasma gondii ATCC 50839; assay type: cell-based; conditions: human fibroblast cells, read-out: TI
[2] = tested on: Toxoplasma gondii; experiment: Antiparasitic activity against Toxoplasma gondii ATCC 50839 infected in human fibroblasts assessed as inhibition of replication of tachyzoites after 4 days by bacterial beta-galactosidase assay; assay type: functional; conditions: ATCC 50839, 96 h, read-out: ID50 (the source's name)
[3] = Cytotoxicity against human fibroblasts assessed as cell viability by microplate reader; assay type: cell-based, Fibroblast; conditions: read-out: TD50 (the source's name)
[4] = tested on: Toxoplasma gondii; experiment: Ratio of trimethoprim ID50 to compound ID50 for Toxoplasma gondii ATCC 50839; assay type: functional

| SMILES | selectivity ratio [1] | IC50 [2] [µM] | CC50 [3] [µM] | Ratio [4] |
| --- | --- | --- | --- | --- |
| CCCC(=O)Oc1c(OC)ccc2cc3[n+](cc12)CCc1cc2c(cc1-3)OCO2 | 2000 | 0.068 | 135 |  |
| COc1ccc2c(c1OC)C(C)N1CCc3cc4c(cc3C1=C2)OCO4 (stereo not given) | 3 | 4.2 | 12 |  |
| CCOc1c(OC)ccc2cc3[n+](cc12)CCc1cc2c(cc1-3)OCO2 | 12 | 0.83 | 9.6 |  |
| CCCCCOc1c(OC)ccc2cc3[n+](cc12)CCc1cc2c(cc1-3)OCO2 | 3 | 1.8 | 5.9 |  |
| CCCCCCCOc1c(OC)ccc2cc3[n+](cc12)CCc1cc2c(cc1-3)OCO2 | 5.5 | 0.2 | 1.1 |  |
| COc1ccc2cc3[n+](cc2c1OC(C)=O)CCc1cc2c(cc1-3)OCO2 | 600 | 0.075 | 45 |  |
| CCCCCC(=O)Oc1c(OC)ccc2cc3[n+](cc12)CCc1cc2c(cc1-3)OCO2 | 4000 | 0.036 | 145 |  |
| COc1ccc2cc3[n+](cc2c1OC)CCc1cc2c(cc1-3)OCO2 [BERBERINE] | 1.5 | 0.58 | 0.85 | 30 |
| COc1ccc2cc3[n+](cc2c1O)CCc1cc2c(cc1-3)OCO2 [BERBERRUBINE] | 1300 | 0.06 | 81 |  |
| COc1ccc2c(c1OC)CN1CCc3cc4c(cc3[C@@H]1C2)OCO4 [CANADINE] | 24 | 8.7 | 210 |  |
| COc1ccc2c(c1OC)CN1CCc3cc4c(cc3C1=C2)OCO4 [DIHYDROBERBERINE] | 63 | 0.65 | 41 |  |
| COc1ccc2cc3n(c(=O)c2c1OC)CCc1cc2c(cc1-3)OCO2 [OXYBERBERINE] | 8 | 12 | 97 |  |
| COc1cc(Cc2cnc(N)nc2N)cc(OC)c1OC [TRIMETHOPRIM] | > 3 | 15 | > 500 |  |
